Blank lines part the entries; values can stand above or below the compound they belong to.
Columns and labels:
[1] = Vapor-liquid equilibrium still: relative volatility of m-DIPB to p-DIPB with alcohol agent and azeotrope boiling point; format: physicochemical; details: for Relative Volatility (m-DIPB to p-DIPB): vapor-liquid equilibrium still; for Relative Volatility (m-DIPB to p-DIPB) / Azeotrope B.P.: starting mixture 50 % alcohol, 25 % m-DIPB, 25 % p-DIPB; for Azeotrope B.P.: 640 mm. Hg; for vapor composition, m-DIPB / vapor composition, p-DIPB: gas chromatography; for relative volatility of m-DIPB to p-DIPB: Examples 1 and 2, reflux thirteen or eleven hours
Text: The data in Tables 2 and 3 were obtained in a vapor-liquid equilibrium still. In each case, the starting material was a mixture containing 50 % alcohol, 25 % m-DIPB and 25 % p-DIPB. The boiling points of the azeotropes at 640 mm. Hg are shown. The relative volatilities are listed for each of the alcohols investigated.
Forty grams of m-DIPB - p-DIPB mixture and 40 grams of diethylene glycol butyl ether were charged to an Othmer type vapor-liquid equilibrium still and refluxed for thirteen hours. Analysis by gas chromatography gave a vapor composition of 68.9% m-DIPB, 31.1% p-DIPB; a liquid decomposition of […], 36.8% p-DIPB. This indicates a relative volatility of m-DIPB to p-DIPB of 1.29.
Forty grams of m-DIPB - p-DIPB mixture and 40 grams of diethylene gylcol methyl ether were charged to the vapor-liquid equilibrium still and refluxed for eleven hours. Analysis indicated a vapor composition of 66.7% m-DIPB, 33.3% p-DIPB; a liquid composition of […] which is a relative volatility of 1.28.

[2] = Boiling point and rectification of the isomers without agent; format: physicochemical; details: 99% purity, 75% efficiency, no agent
Protocol: In the manufacture of cumene, also called isopropylbenzene, by the alkylation of benzene with propylene, the most prevalent by-products are the diisopropylbenzenes with the meta and para isomers comprising most of the by-product. m-Diisopropylbenzene (m-DIPB) boils at 203.2° C. […] boils at 210.3° C. and these two have a relative volatility of 1.14. The difficulty of separating these two by rectification can be shown by the data in Table 1.
that rectification of m-DIPB from p-DIPB in 99% purity requires 95 actual plates. Using azeotropic distillation with an agent yielding a relative volatility of 1.29 would require only 48 actual plates.

[3] = m-DIPB and p-DIPB, no agent; cited from earlier work
[4] = no agent; prior art description; cited from earlier work
[5] = Packed rectification column (Berl saddles, 2.3 theoretical plates), Fenske equation; format: physicochemical; details: 80 g m-DIPB, 20 g p-DIPB, 40 g agent, two hours total reflux
Text: A solution comprising 80 grams of m-DIPB, 20 grams of p-DIPB and 40 grams of o-isopropyl phenol was placed in the stillpot and heated. After two hours of refluxing a total reflux, analysis was made by gas chromatography. The overhead composition was 78% m-DIPB, 22% p-DIPB and the stillpot analysis was 62.7% m-DIPB, 37.3% p-DIPB. Using these compositions in the Fenske equation with the number of theoretical plates in the column being 2.3 gave an average relative volatility of 1.34 for each theoretical plate.

[6] = 40 g m-DIPB - p-DIPB mixture and 40 g agent

Compound: OCc1ccccc1 [Benzyl alcohol]
Relative Volatility (m-DIPB to p-DIPB) [1]: 1.11

Compound: CCCCOCCOCC(C)O (stereo not drawn) [Butoxyethoxypropanol]
Azeotrope B.P. [1]: 199 °C
Relative Volatility (m-DIPB to p-DIPB) [1]: 1.17

Compound: CCOCCOCCO [Diethylene glycol ethyl ether]
Azeotrope B.P. [1]: 185 °C
Relative Volatility (m-DIPB to p-DIPB) [1]: 1.25

Compound: COCCOCCO [Diethylene glycol methyl ether]
liquid composition, m-DIPB [1, 6]: 60.9%
vapor composition, m-DIPB [1, 6]: 66.7%
vapor composition, p-DIPB [1, 6]: 33.3%
Azeotrope B.P. [1]: 182 °C
relative volatility of m-DIPB to p-DIPB [1, 6]: 1.28
Relative Volatility (m-DIPB to p-DIPB) [1]: 1.28

Compound: CCCCOCCO [Ethylene glycol butyl ether]
Relative Volatility (m-DIPB to p-DIPB) [1]: 0.6

Compound: OCCOc1ccccc1 [Ethylene glycol phenyl ether]
Relative Volatility (m-DIPB to p-DIPB) [1]: 1.14

Compound: Oc1ccccc1 [Phenol]
Azeotrope B.P. [1]: 174 °C
Relative Volatility (m-DIPB to p-DIPB) [1]: 1.24

Compound: CC(O)CO (stereo not drawn) [Propylene glycol]
Azeotrope B.P. [1]: 168 °C
Relative Volatility (m-DIPB to p-DIPB) [1]: 1.28

Compound: OCC1CCCO1 (stereo not drawn) [Tetrahydrofurfuryl alcohol]
Azeotrope B.P. [1]: 171 °C
Relative Volatility (m-DIPB to p-DIPB) [1]: 1.21

Compound: Cc1cccc(O)c1 [m-Cresol]
Azeotrope B.P. [1]: 189 °C
Relative Volatility (m-DIPB to p-DIPB) [1]: 1.17

Compound: Cc1ccccc1O [o-Cresol]
Azeotrope B.P. [1]: 184 °C
Relative Volatility (m-DIPB to p-DIPB) [1]: 1.26

Compound: CCC(C)c1ccccc1O (stereo not drawn) [o-sec. Butyl phenol]
Azeotrope B.P. [1]: 205 °C
Relative Volatility (m-DIPB to p-DIPB) [1]: 1.23

Compound: CC(C)(C)c1ccccc1O [o-tert. Butyl phenol]
Azeotrope B.P. [1]: 205 °C
Relative Volatility (m-DIPB to p-DIPB) [1]: 1.20

Compound: CC(C)c1ccc(C(C)C)cc1 [p-DIPB, p-diisopropylbenzene]
boiling point [4]: 210.3 °C

Now from value to compound, other results behind:

Relative Volatility (m-DIPB to p-DIPB) [1]: 1.14
Compound: CCCCCCCCO [1-Octanol]

Azeotrope B.P. [1]: 183 °C
Relative Volatility of alcohol:DIPB mixture ([1]; one part agent with one part m-DIPB - p-DIPB mixture): 1.27
Relative Volatility (m-DIPB to p-DIPB) [1]: 1.27
Compound: CCCCC(CC)CO (stereo not drawn) [2-Ethyl hexanol]

Relative Volatility (m-DIPB to p-DIPB) [1]: 1.10
Compound: CCCCCCC(C)O (stereo not drawn) [2-Octanol]

Relative Volatility (m-DIPB to p-DIPB) [1]: 1.13
Compound: CC(=O)CC(C)(C)O [Diacetone alcohol]

liquid composition, m-DIPB [1, 6]: 63.2%
liquid composition, p-DIPB (second figure) [1, 6]: 36.8%
vapor composition, m-DIPB [1, 6]: 68.9%
vapor composition, p-DIPB [1, 6]: 31.1%
Azeotrope B.P. [1]: 200 °C
relative volatility of m-DIPB to p-DIPB [1, 6]: 1.29
Relative Volatility (m-DIPB to p-DIPB) [1]: 1.29
Compound: CCCCOCCOCCO [Diethylene glycol butyl ether]

Azeotrope B.P. [1]: 180 °C
Relative Volatility (m-DIPB to p-DIPB) [1]: 1.20
Compound: CC(C)CC(O)CC(C)C [Diisobutyl carbinol]

Azeotrope B.P. [1]: 195 °C
Relative Volatility (m-DIPB to p-DIPB) [1]: 1.26
Compound: CCCCCCOCCO [Ethylene glycol hexyl ether]

Azeotrope B.P. [1]: 194 °C
Relative Volatility (m-DIPB to p-DIPB) [1]: 1.22
Compound: CC(C)CCCCCCO [Isononyl alcohol]

Relative Volatility (m-DIPB to p-DIPB) [1]: 1.15
Compound: CC(C)CCCCCO [Isooctanol]

Relative Volatility (m-DIPB to p-DIPB) [1]: 1.06
Compound: OCCc1ccccc1 [Phenethyl alcohol]

actual plates required for rectification of m-DIPB from p-DIPB [2]: 95 actual plates
Compound: CC(C)c1cccc(C(C)C)c1 [m-DIPB, m-Diisopropylbenzene]
relative volatility used in column calibration [3]: 1.14
boiling point [4]: 203.2 °C
relative volatility of m-DIPB and p-DIPB without agent [4]: 1.14

Relative Volatility (m-DIPB to p-DIPB) [1]: 1.10
Compound: CCCCCCO [n-Hexanol]

Azeotrope B.P. [1]: 196 °C
Relative Volatility (m-DIPB to p-DIPB) [1]: 1.23
Compound: CCCCCCCCCO [n-Nonyl alcohol]

Azeotrope B.P. [1]: 200 °C
Relative Volatility (m-DIPB to p-DIPB) [1]: 1.34
overhead composition, m-DIPB [5]: 78%
overhead composition, p-DIPB [5]: 22%
stillpot composition, m-DIPB [5]: 62.7%
stillpot composition, p-DIPB [5]: 37.3%
average relative volatility for each theoretical plate ([5]; Fenske equation, 2.3 plates): 1.34
Compound: CC(C)c1ccccc1O [o-Isopropyl phenol]

Azeotrope B.P. [1]: 188 °C
Relative Volatility (m-DIPB to p-DIPB) [1]: 1.25
Compound: Cc1ccc(O)cc1 [p-Cresol]

Azeotrope B.P. [1]: 186 °C
Compound: Dipropylene glycol methyl ether
